Data reported in patent US9249104B2, “Pyrazole indanyl carboxamides” (BAYER CROPSCIENCE AG, priority 2012, dated 2016).
One block for each molecule: values may come before it.

What was measured:
[1] = test system: Puccinia recondita; assay: In vivo preventive test on Puccinia recondita (brown rust on wheat); details: graded 12 days after contamination
Procedure: Wheat plants (“Scipion” variety), sown in starter cups on a 50/50 peat soil-pozzolana substrate and grown at 22° C., are treated at the 1-leaf stage (10 cm height) by spraying with the active ingredient prepared as described above. Plants, used as controls, are treated with the mixture of acetone/tween/DMSO/water not containing the active material. After 24 hours, the plants are contaminated by spraying the leaves with an aqueous suspension of Puccinia recondita spores (100 000 spores per ml). The spores are collected from an infected plant and are suspended in water to containing 2.5 ml/l of Tween 80 at 10%. […] Grading (% of efficacy) is carried out 12 days after the contamination, in comparison with the control plants.

[2] = test system: Sphaerotheca fuliginea; assay: In vivo preventive test on Sphaerotheca fuliginea (powdery mildew on cucurbits); details: graded 12 days after contamination
Procedure: Gherkin plants (“Vert petit de Paris” variety), sown in starter cups on a 50/50 peat soil-pozzolana substrate and grown at 24° C., are treated at the Z11 cotyledon stage by spraying with the active ingredient prepared as described above. Plants, used as controls, are treated with the mixture of acetone/tween/DMSO/water not containing the active material. After 24 hours, the plants are contaminated by spraying the cotyledons with an aqueous suspension of Sphaerotheca fuliginea spores (100 000 spores per ml). The spores are collected from infected plants. […] Grading (% of efficacy) is carried out 12 days after the contamination, in comparison with the control plants.

[3] = test system: Septoria tritici; assay: In vivo preventive test on Septoria tritici (leaf spot on wheat); details: 500 ppm, wheat plants sprayed 24 h before contamination, graded 24 days after contamination
Procedure: Wheat plants (“Scipion” variety), sown in starter cups on a 50/50 peat soil-pozzolana substrate and grown at 22° C., are treated at the 1-leaf stage (10 cm height) by spraying with the active ingredient prepared as described above. Plants, used as controls, are treated with the mixture of acetone/tween/DMSO/water not containing the active material. After 24 hours, the plants are contaminated by spraying the leaves with an aqueous suspension of cryopreserved Septoria tritici spores (500 000 spores per ml). The contaminated wheat plants are incubated for 72 hours at 18° C. and at 100% relative humidity, and then for 21 days at 90% relative humidity. Grading (% of efficacy) is carried out 24 days after the contamination, in comparison with the control plants.

[4] = test system: Alternaria brassicae; assay: In vivo preventive test on Alternaria brassicae (leaf spot on radish); details: 500 ppm, radish plants sprayed 24 h before contamination, graded 6 days after contamination
Procedure: Radish plants (“Pernod Clair” variety), sown in starter cups on a 50/50 peat soil-pozzolana substrate and grown at 17° C., are treated at the cotyledon stage by spraying with the active ingredient prepared as described above. Plants, used as controls, are treated with the mixture of acetone/tween/DMSO/water not containing the active material. After 24 hours, the plants are contaminated by spraying the cotyledons with an aqueous suspension of Alternaria brassicae spores (50 000 spores per ml). The spores are collected from a 15-day-old culture. The contaminated radish plants are incubated at 20° C. and at 100% relative humidity. Grading (% of efficacy) is carried out 6 days after the contamination, in comparison with the control plants.

[5] = test system: Uromyces appendiculatus; assay: In vivo preventive test on Uromyces appendiculatus (bean rust); details: bean plants
Procedure: Bean plants (“Saxa” variety), sown in starter cups on a 50/50 peat soil-pozzolana substrate and grown at 24° C., are treated at the 2-leaf stage (9 cm height) by spraying with the active ingredient prepared as described above. Plants, used as controls, are treated with the mixture of acetone/tween/DMSO/water not containing the active material. After 24 hours, the plants are contaminated by spraying the leaves with an aqueous suspension of Uromyces appendiculatus spores (150 000 spores per ml). The spores are collected from infected plants and are suspended in water containing 2.5 ml/1 of Tween 80 at 10%. […] Grading (% of efficacy) is carried out 11 days after the contamination, in comparison with the control plants.

[6] = logP by HPLC on reversed phase columns (EEC directive 79/831 Annex V.A8); format: physicochemical; details: for logP: method [a]: LC-MS at pH 2.7, 0.1% formic acid in water / acetonitrile, compounds of formula (I), Table 1
[7] = test system: Pyrenophora teres; assay: In vivo preventive test on Pyrenophora teres (net blotch on barley); details: graded 14 days after contamination
Procedure: Barley plants (“Plaisant” variety), sown in starter cups on a 50/50 peat soil-pozzolana substrate and grown at 22° C., are treated at the 1-leaf stage (10 cm height) by spraying with the active ingredient prepared as described above. Plants, used as controls, are treated with the mixture of acetone/tween/DMSO/water not containing the active material. After 24 hours, the plants are contaminated by spraying the leaves with an aqueous suspension of Pyrenophora teres spores (12 000 spores per ml). The spores are collected from a 12-day-old culture. […] Grading (% of efficacy) is carried out 14 days after the contamination, in comparison with the control plants.

[8] = 500 ppm, wheat plants sprayed 24 h before contamination
[9] = 500 ppm, gherkin plants sprayed 24 h before contamination
[10] = preventive, dose of 500 ppm, grading 11 days after contamination
[11] = 500 ppm, barley plants sprayed 24 h before contamination

Structure (SMILES): CON=C1c2cccc(NC(=O)c3cn(C)nc3C(F)(F)F)c2CC1(C)C (mixture of isomers) [Example 30]
Eff. % [1, 8]: 86%
Eff. % [2, 9]: 98%
Eff. % [3]: 100%

Structure (SMILES): CON=C1c2cccc(NC(=O)c3cn(C)nc3C(F)F)c2CC1(C)C (mixture of isomers) [Example 32]
Eff. % [1, 8]: 93%
Eff. % [2, 9]: 98%
Eff. % [4]: 75%
Eff. % [3]: 100%

Structure (SMILES): CC(C)C1Cc2c(NC(=O)c3c(C(F)(F)F)nn(C)c3F)cccc2C1(C)C (racemic) [Example 66]
Eff. % [1, 8]: 98%
Eff. % [2, 9]: 98%
Eff. % [5, 10]: 100%
Eff. % [4]: 79%
logP [6]: 4.82[a]
Eff. % [7, 11]: 83%

Structure (SMILES): CCC1Cc2c(NC(=O)c3c(C)nn(C)c3Cl)cccc2C1(C)C (racemic) [Example 68]
Eff. % [1, 8]: 100%
Eff. % [5, 10]: 100%
Eff. % [4]: 75%
logP [6]: 4.32[a]

Structure (SMILES): Cc1nn(C)c(Cl)c1C(=O)Nc1cccc2c1CC(C(C)C)C2(C)C (racemic) [Example 69]
Eff. % [1, 8]: 88%
Eff. % [2, 9]: 72%
Eff. % [5, 10]: 100%
logP [6]: 4.76[a]
Eff. % [7, 11]: 75%

Structure (SMILES): CC(C)C1Cc2c(NC(=S)c3cn(C)nc3C(F)(F)F)cccc2C1(C)C (racemic) [Example 86]
Eff. % ([1]; 100 ppm, wheat plants): 100%
Eff. % ([2]; 100 ppm, gherkin plants): 100%
Eff. % ([5]; 100 ppm, graded 11 days after contamination): 100%
logP [6]: 4.78[a]
Eff. % ([7]; 100 ppm, barley plants): 100%

Structure (SMILES): Cc1nn(C)c(C(F)F)c1C(=O)Nc1cccc2c1CC(C)C2(C)C (racemic) [Example 87]
Eff. % [1, 8]: 100%
Eff. % [5, 10]: 100%
logP [6]: 3.96[a]
Eff. % [3]: 92%

Structure (SMILES): CC(C)CC1Cc2cccc(NC(=O)c3cn(C)nc3C(F)F)c2C1 (stereo not shown) [Example 4]
Eff. % [1, 8]: 93%
Eff. % [2, 9]: 70%
Eff. % [5, 10]: 100%
Eff. % [4]: 93%
Eff. % [3]: 85%

The next lines start with results.

logP [6]: 4.46[a]
Structure (SMILES): CCC1(CC)Cc2c(NC(=O)c3cn(C)nc3C(F)(F)F)cccc2C1C (racemic) [Example 74]
Eff. % [1, 8]: 98%
Eff. % [2, 9]: 98%
Eff. % [5, 10]: 100%
Eff. % [3]: 94%

logP [6]: 3.64[a]
Structure (SMILES): CC1Cc2c(NC(=O)c3cn(C)nc3I)cccc2C1(C)C (racemic) [Example 75]
Eff. % [1, 8]: 98%
Eff. % [2, 9]: 78%
Eff. % [5, 10]: 100%
Eff. % [3]: 79%

logP [6]: 4.27[a]
Structure (SMILES): CCC1(CC)Cc2c(NC(=O)c3cn(C)nc3C(F)F)cccc2C1C (racemic) [Example 79]
Eff. % [1, 8]: 98%
Eff. % [2, 9]: 100%
Eff. % [5, 10]: 100%
Eff. % [4]: 95%
Eff. % [3]: 98%

chromatographic logP ([6]; pH 2.7): 3.96
Structure (SMILES): CC1c2cccc(NC(=O)c3cn(C)nc3C(F)F)c2CC12CCCC2 (stereo not shown) [Example 10, 3-(difluoromethyl)-1-methyl-N-(1′-methyl-1′,3′-dihydrospiro[cyclopentane-1,2′-inden]-4′-yl)-1H-pyrazole-4-carboxamide]
Eff. % [1, 8]: 97%
Eff. % [2, 9]: 100%
Eff. % [5, 10]: 100%
Eff. % [4]: 93%
Eff. % [3]: 100%
Eff. % [7, 11]: 83%

logP [6]: 3.74[a]
Structure (SMILES): CC1c2cccc(NC(=O)c3cn(C)nc3C(F)(F)F)c2CC1(C)C (stereo not shown) [Example 15]
Eff. % [1, 8]: 96%
Eff. % [2, 9]: 100%
Eff. % [5, 10]: 100%
Eff. % [4]: 86%
